# Data taken from patent publication US8153648B2, “Solid and crystalline dutasteride and processes for preparation thereof” (Gador S.A., priority 2008, dated 2012).
# Tests used:
# [1] = intrinsic dissolving speed (VDI) study; type: physicochemical; conditions: for change of crystalline or polymorphous structure during the dissolving assay: SDS 2% in hydrochloric acid 0.1N 225 ml, detected in the study chart
# Method: These study has been carried out using Lauril Sodium Sulphate SDS 2% in hydrochloric acid 0.1N 225 ml. as dissolvent. At the established experimental conditions, changes were seen depending on the crystalline or polymorphous structure present.
# [2] = stability on exposure to different humidity conditions; type: physicochemical
smiles,measurement,setting,value
"C[C@]12C=CC(=O)NC1CCC1C2CC[C@]2(C)C(C(=O)Nc3cc(C(F)(F)F)ccc3C(F)(F)F)CCC12 (stereo partly drawn) [Form I, 17β-N-[2,5-bis(trifluoromethyl)phenyl]carbamoyl-4-aza-5-α-androst-1-en-3-one]",change of crystalline or polymorphous structure during the dissolving assay,[1],transformation into Form III
"C[C@]12C=CC(=O)NC1CCC1C2CC[C@]2(C)C(C(=O)Nc3cc(C(F)(F)F)ccc3C(F)(F)F)CCC12 (stereo partly drawn) [amorphous Form, 17β-N-[2,5-bis(trifluoromethyl)phenyl]carbamoyl-4-aza-5-α-androst-1-en-3-one]",change of crystalline or polymorphous structure during the dissolving assay,[1],did not show any changes
"C[C@]12C=CC(=O)NC1CCC1C2CC[C@]2(C)C(C(=O)Nc3cc(C(F)(F)F)ccc3C(F)(F)F)CCC12 (stereo partly drawn) [Crystalline Form III of dutasteride, 17β-N-[2,5-bis(trifluoromethyl)phenyl]carbamoyl-4-aza-5-α-androst-1-en-3-one]",intrinsic dissolving speed value (VDI),[1]; Lauril Sodium Sulphate SDS 2% in hydrochloric acid 0.1N 225 ml as dissolvent,of the same magnitude of the crystalline forms described in the previous art
"C[C@]12C=CC(=O)NC1CCC1C2CC[C@]2(C)C(C(=O)Nc3cc(C(F)(F)F)ccc3C(F)(F)F)CCC12 (stereo partly drawn) [Crystalline Form II of dutasteride, 17β-N-[2,5-bis(trifluoromethyl)phenyl]carbamoyl-4-aza-5-α-androst-1-en-3-one]",change of crystalline or polymorphous structure during the dissolving assay,[1],did not show any changes
same,changes in the solid Form with XR study,"[2]; 66% and 75% HR, 60-day period",No changes were observed
same,stability when exposed to humidity,"[2]; 66% and 75% HR, 60-day period",stable
same,"water content (KF), final sample",[2]; after 60 days at 66% and 75% HR,2.1
same,"water content (KF), initial sample",[2]; before humidity exposure,1.9
